{
  "source": "patent US20220305012A1",
  "about": "“L[…] TREATING SLEEP ISSUES” (EISAI R&D MANAGEMENT CO., LTD., priority 2019, published 2022)",
  "format_in_all_cases": "in vivo, human",
  "key": {"[1]": {"tested_on": "Subjects Having Insomnia Disorder", "assay": "Example 2: REM latency", "details": "both doses (FIG. 16)"}, "[2]": {"tested_on": "Subjects Having Insomnia Disorder", "assay": "Example 2: sleep efficiency (SE), polysomnography", "method": "In some embodiments, a sleep parameter is determined objectively using polysomnography. Polysomnography is the monitoring of multiple electrophysiological parameters during sleep and generally includes measurement of EEG activity, electro-oculographic activity and electromyographic activity, as well as other measurements.\nSE—sleep efficiency: proportion of time spent asleep per time in bed, calculated as TST/interval from lights off until lights on.\nThe treatment period lasted for 31 days. Subjects were randomized in a double-blind manner and received placebo, a tablet containing 5 mg of lemborexant, a tablet containing 10 mg of lemborexant, or a tablet containing 6.25 mg of zolpidem ER.\nWithin 5 minutes of the subject's mean habitual bedtime, study drug was administered and an overnight polysomnogram recording was initiated. At completion of the recording the following morning (Day 2), postural stability and cognitive performance were assessed. On the Day 2 evening, subjects returned to the clinic and a blood sample was collected before administering study drug, and then study drug was administered within 5 minutes of the subject's mean habitual bedtime. Again, a polysomnogram recording was initiated. The next morning (Day 3), postural stability and cognitive performance were assessed. A blood sample was also collected.\nOn Day 29, subjects returned to the clinic. Study drug was administered within 5 minutes of the subject's mean habitual bedtime and a polysomnogram recording was conducted. On the following morning (Day 30), postural stability and cognitive performance were assessed. After 1.5 hours of waketime, subjects rated their morning sleepiness level.\nOn the evening of Day 30, subjects returned to the clinic. A pre-dose blood sample was collected and study drug was again administered within 5 minutes of the subject's mean habitual bedtime. A polysomnogram recording was initiated. The following morning (Day 31), postural stability and cognitive performance were assessed and a blood sample was obtained. The ISI, FSS, EQ-5D-3L and PGI-Insomnia were administered. Blood and urine samples were collected for routine safety assessment. An electrocardiogram was performed, and vital signs and weight were assessed. The eC-SSRS was then administered to the subject. At 1.5 hours after waketime, subjects rated their morning sleepiness level.\nOne key secondary endpoint was to determine the change from baseline for mean sleep efficiency on Days 29 and 30 after administration of 5 mg or 10 mg of lemborexant, compared to placebo."}, "[3]": {"tested_on": "Subjects Having Insomnia Disorder", "assay": "Example 1: Insomnia Severity Index Daytime Functioning (Items 4-7)", "excerpt": "As used herein, the term “Insomnia Severity Index”, abbreviated as “ISI”, is an index calculated using a 7-item, self-report questionnaire assessing the nature, severity, and impact of insomnia (see Bastien, C. H., et al. “Validation of the Insomnia Severity Index as an outcome measure for insomnia research.” Sleep Med. 2001; 2(4): 297-307). The questionnaire evaluates: (1) severity of sleep onset; (2) sleep maintenance; (3) early morning awakening problems; (4) sleep dissatisfaction; (5) interference caused by sleep difficulties with daytime functioning; (6) noticeability of sleep problems by others; and (7) distress caused by the sleep difficulties. A 5-point scale is used to rate each item (0=no problem to 4=very severe problem) yielding a total score from 0 to 28. Total ISI score (items (1)-(7)) and daytime functioning (items (4)-(7)) are analyzed separately.\nMonth 1 Assessment: Standard safety assessments were performed on the subject. A blood sample was collected for determination of plasma concentration of lemborexant and its metabolites, and the ISI, FSS, PGI-Insomnia, EQ-5D-3L, and eC-SSR were completed.\nMonth 3 Assessment: All assessments conducted at the Month 1 Assessment were repeated.\nMonth 6 Assessment: All assessments conducted at the Month 1 Assessment were repeated, and subjects completed the WPAI-GH.\nIn addition to the aforementioned study endpoints, the study included several additional secondary endpoints: • Mean change from study baseline of subjective sleep onset latency, subjective sleep efficiency, subjective wake after sleep onset, and subjective total sleep time at the beginning of treatment (mean of the 7 nights after the first dose in Period 1), at Month 1 and at Month 3. • Mean change from study baseline of subjective total sleep time at Month 6. • Change from study baseline in daytime functioning, assessed as the total score from the 4 items on daytime functioning, on the Insomnia Severity Index, at Months 1, 3, and 6."}, "[4]": {"details": "Days 29/30, Zolpidem ER 6.25 mg"}},
  "data": [
    {"smiles": "Cc1ncc(OC[C@@]2(c3cccc(F)c3)C[C@H]2C(=O)Nc2ccc(F)cn2)c(C)n1", "note": "[Lemborexant, (1R,2S)-2-(((2,4-dimethylpyrimidin-5-yl)oxy)methyl)-2-(3-fluorophenyl)-N-(5-fluoropyridin-2-yl)cyclopropanecarboxamide]", "values": [
      {"measurement": "REM latency", "setting": "[1]", "value": "greater mean decrease in REM latency compared to treatment with placebo and zolpidem ER"},
      {"measurement": "Sleep Efficiency, Change from Study Baseline, Mean (SD)", "setting": "[2]; Days 1/2, Lemborexant 5 mg", "value": "13.60 (9.725)"},
      {"measurement": "Sleep Efficiency, Change from Study Baseline, Median", "setting": "[2]; Days 1/2, Lemborexant 5 mg", "value": 12.40},
      {"measurement": "Sleep Efficiency, Mean (SD)", "setting": "[2]; Days 1/2, Lemborexant 5 mg", "value": "81.96 (8.384)"},
      {"measurement": "Sleep Efficiency, Median", "setting": "[2]; Days 1/2, Lemborexant 5 mg", "value": 83.62},
      {"measurement": "Sleep Efficiency, Change from Study Baseline, Mean (SD)", "setting": "[2]; Days 1/2, Lemborexant 10 mg", "value": "16.48 (9.623)"},
      {"measurement": "Sleep Efficiency, Change from Study Baseline, Median", "setting": "[2]; Days 1/2, Lemborexant 10 mg", "value": 15.47},
      {"measurement": "Sleep Efficiency, Mean (SD)", "setting": "[2]; Days 1/2, Lemborexant 10 mg", "value": "84.33 (7.608)"},
      {"measurement": "Sleep Efficiency, Median", "setting": "[2]; Days 1/2, Lemborexant 10 mg", "value": 85.73},
      {"measurement": "Sleep Efficiency, Change from Study Baseline, LSM treatment difference: Lemborexant-Zolpidem", "setting": "[2]; Days 29/30, Lemborexant 5 mg", "value": "3.92 (0.705)"},
      {"measurement": "Sleep Efficiency, Change from Study Baseline, Mean (SD)", "setting": "[2]; Days 29/30, Lemborexant 5 mg", "value": "12.93 (9.741)"},
      {"measurement": "Sleep Efficiency, Change from Study Baseline, Median", "setting": "[2]; Days 29/30, Lemborexant 5 mg", "value": 11.85},
      {"measurement": "Sleep Efficiency, Mean (SD)", "setting": "[2]; Days 29/30, Lemborexant 5 mg", "value": "81.29 (8.800)"},
      {"measurement": "Sleep Efficiency, Median", "setting": "[2]; Days 29/30, Lemborexant 5 mg", "value": 83.26},
      {"measurement": "Sleep Efficiency, Change from Study Baseline, LSM treatment difference: Lemborexant-Zolpidem", "setting": "[2]; Days 29/30, Lemborexant 10 mg", "value": "4.88 (0.702)"},
      {"measurement": "Sleep Efficiency, Change from Study Baseline, Mean (SD)", "setting": "[2]; Days 29/30, Lemborexant 10 mg", "value": "14.09 (10.514)"},
      {"measurement": "Sleep Efficiency, Change from Study Baseline, Median", "setting": "[2]; Days 29/30, Lemborexant 10 mg", "value": 13.57},
      {"measurement": "Sleep Efficiency, Mean (SD)", "setting": "[2]; Days 29/30, Lemborexant 10 mg", "value": "81.99 (8.801)"},
      {"measurement": "Sleep Efficiency, Median", "setting": "[2]; Days 29/30, Lemborexant 10 mg", "value": 83.52},
      {"measurement": "mean sleep efficiency", "setting": "[2]; all lemborexant treatment groups, relative to baseline, placebo and zolpidem treatment groups (Table 14)", "value": "increased"},
      {"measurement": "ISI Daytime Functioning (Items 4-7), Mean", "setting": "[3]; 5 mg, Month 1", "value": 7.2},
      {"measurement": "ISI Daytime Functioning (Items 4-7), Median", "setting": "[3]; 5 mg, Month 1", "value": 7.0},
      {"measurement": "ISI Daytime Functioning (Items 4-7), Mean", "setting": "[3]; 5 mg, Month 3", "value": 6.2},
      {"measurement": "ISI Daytime Functioning (Items 4-7), Median", "setting": "[3]; 5 mg, Month 3", "value": 6.0},
      {"measurement": "ISI Daytime Functioning (Items 4-7), Mean", "setting": "[3]; 5 mg, Month 6", "value": 5.4},
      {"measurement": "ISI Daytime Functioning (Items 4-7), Median", "setting": "[3]; 5 mg, Month 6", "value": 5.0},
      {"measurement": "ISI Daytime Functioning Change from Study Baseline, Mean", "setting": "[3]; 5 mg, Month 6", "value": "−6.0"},
      {"measurement": "ISI Daytime Functioning Change from Study Baseline, Median", "setting": "[3]; 5 mg, Month 6", "value": "−6.0"},
      {"measurement": "ISI Daytime Functioning LSM treatment difference: Lemborexant/Placebo", "setting": "[3]; 5 mg, Month 6", "value": "−1.30"},
      {"measurement": "ISI Daytime Functioning (Items 4-7), Mean", "setting": "[3]; 5 mg, Study Baseline", "value": 11.4},
      {"measurement": "ISI Daytime Functioning (Items 4-7), Median", "setting": "[3]; 5 mg, Study Baseline", "value": 11.0},
      {"measurement": "ISI Daytime Functioning Change from Study Baseline, Mean", "setting": "[3]; 5 mg, after 1 Month", "value": "−4.1"},
      {"measurement": "ISI Daytime Functioning Change from Study Baseline, Median", "setting": "[3]; 5 mg, after 1 Month", "value": "−3.0"},
      {"measurement": "ISI Daytime Functioning Change from Study Baseline, Mean", "setting": "[3]; 5 mg, after 3 Months", "value": "−5.2"},
      {"measurement": "ISI Daytime Functioning Change from Study Baseline, Median", "setting": "[3]; 5 mg, after 3 Months", "value": "−5.0"},
      {"measurement": "ISI Daytime Functioning LSM treatment difference: Lemborexant/Placebo", "setting": "[3]; 5 mg, change from Study Baseline after 1 Month", "value": "−0.71"},
      {"measurement": "ISI Daytime Functioning LSM treatment difference: Lemborexant/Placebo", "setting": "[3]; 5 mg, change from Study Baseline after 3 Months", "value": "−1.16"},
      {"measurement": "ISI Daytime Functioning (Items 4-7), Mean", "setting": "[3]; 10 mg, Month 1", "value": 7.0},
      {"measurement": "ISI Daytime Functioning (Items 4-7), Median", "setting": "[3]; 10 mg, Month 1", "value": 7.0},
      {"measurement": "ISI Daytime Functioning (Items 4-7), Mean", "setting": "[3]; 10 mg, Month 3", "value": 6.0},
      {"measurement": "ISI Daytime Functioning (Items 4-7), Median", "setting": "[3]; 10 mg, Month 3", "value": 5.0},
      {"measurement": "ISI Daytime Functioning (Items 4-7), Mean", "setting": "[3]; 10 mg, Month 6", "value": 5.4},
      {"measurement": "ISI Daytime Functioning (Items 4-7), Median", "setting": "[3]; 10 mg, Month 6", "value": 5.0},
      {"measurement": "ISI Daytime Functioning Change from Study Baseline, Mean", "setting": "[3]; 10 mg, Month 6", "value": "−5.7"},
      {"measurement": "ISI Daytime Functioning Change from Study Baseline, Median", "setting": "[3]; 10 mg, Month 6", "value": "−6.0"},
      {"measurement": "ISI Daytime Functioning LSM treatment difference: Lemborexant/Placebo", "setting": "[3]; 10 mg, Month 6", "value": "−1.32"},
      {"measurement": "ISI Daytime Functioning (Items 4-7), Mean", "setting": "[3]; 10 mg, Study Baseline", "value": 11.0},
      {"measurement": "ISI Daytime Functioning (Items 4-7), Median", "setting": "[3]; 10 mg, Study Baseline", "value": 11.0},
      {"measurement": "ISI Daytime Functioning Change from Study Baseline, Mean", "setting": "[3]; 10 mg, after 1 Month", "value": "−4.2"},
      {"measurement": "ISI Daytime Functioning Change from Study Baseline, Median", "setting": "[3]; 10 mg, after 1 Month", "value": "−4.0"},
      {"measurement": "ISI Daytime Functioning Change from Study Baseline, Mean", "setting": "[3]; 10 mg, after 3 Months", "value": "−5.2"},
      {"measurement": "ISI Daytime Functioning Change from Study Baseline, Median", "setting": "[3]; 10 mg, after 3 Months", "value": "−5.0"},
      {"measurement": "ISI Daytime Functioning LSM treatment difference: Lemborexant/Placebo", "setting": "[3]; 10 mg, change from Study Baseline after 1 Month", "value": "−0.94"},
      {"measurement": "ISI Daytime Functioning LSM treatment difference: Lemborexant/Placebo", "setting": "[3]; 10 mg, change from Study Baseline after 3 Months", "value": "−1.36"}
    ]},
    {"smiles": "Cc1ccc(-c2nc3ccc(C)cn3c2CC(=O)N(C)C)cc1", "note": "[Zolpidem ER, zolpidem, reference compound]", "values": [
      {"measurement": "Sleep Efficiency, Change from Study Baseline, Mean (SD)", "setting": "[2]; Days 1/2, Zolpidem ER 6.25 mg", "value": "11.70 (9.725)"},
      {"measurement": "Sleep Efficiency, Change from Study Baseline, Median", "setting": "[2]; Days 1/2, Zolpidem ER 6.25 mg", "value": 10.83},
      {"measurement": "Sleep Efficiency, Mean (SD)", "setting": "[2]; Days 1/2, Zolpidem ER 6.25 mg", "value": "79.85 (8.461)"},
      {"measurement": "Sleep Efficiency, Median", "setting": "[2]; Days 1/2, Zolpidem ER 6.25 mg", "value": 80.73},
      {"measurement": "Sleep Efficiency, Change from Study Baseline, Mean (SD)", "setting": "[2]; [4]", "value": "9.06 (11.230)"},
      {"measurement": "Sleep Efficiency, Change from Study Baseline, Median", "setting": "[2]; [4]", "value": 8.39},
      {"measurement": "Sleep Efficiency, Mean (SD)", "setting": "[2]; [4]", "value": "77.17 (10.185)"},
      {"measurement": "Sleep Efficiency, Median", "setting": "[2]; [4]", "value": 78.70}
    ]}
  ]
}
